TGI and GI50 data for nine compounds are collected here from PubChem BioAssay (NCI).

Among the test systems are 786-0 renal; BT-549 breast; DU-145 prostate; HOP-62 NSCLC; HOP-92 NSCLC; HT29 colon; MDA-MB-231 breast; MDA-MB-435; OVCAR-5 ovarian; UO-31 renal.
Holding throughout (experiment): inhibition of tumour cell growth, NCI panel, 48 h

SMILES strings stand for the structures.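 Compound exposure: 48 hours, 5 concentrations, 96-well plates. Abbreviation: GI50, concentration required for 50% inhibition of growth. The concentration for full growth arrest is given as TGI.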 Where only a bound is given, the exact number is not on record here.

Consider `CCOc1nc(N)nc(C)c1N=Nc1ccc(Cl)cc1`, for which the TGI in the test on 786-0 renal is > 100 µM; in the test with BT-549 breast, > 100 µM; with DU-145 prostate, > 100 µM; in the test on HOP-62 NSCLC, > 100 µM; in the test with HOP-92 NSCLC, 88 µM; in the test on HT29 colon, > 100 µM. Moreover, the TGI with MDA-MB-231 breast, with MDA-MB-435, with OVCAR-5 ovarian and with UO-31 renal was > 100 µM each time.
Take `COc1cc2c(c(OC)c1OC)-c1ccc(SC)c(=O)cc1[C@@H](NC1OC(CO)C(O)C(O)C1O)CC2` (some centres not stated): the GI50 in the test with 786-0 renal was 0.0575 µM; in the test with BT-549 breast, 0.0679 µM; with DU-145 prostate, 0.0352 µM; with HOP-92 NSCLC, 0.0373 µM; in the test with HT29 colon, 0.028 µM; in the test on MDA-MB-231 breast, 0.0341 µM. The GI50 with OVCAR-5 ovarian was 0.0519 µM; with UO-31 renal it was 0.0864 µM. Also, the TGI with 786-0 renal was > 100 µM; in the test with BT-549 breast, > 100 µM; in the test on DU-145 prostate, > 100 µM; in the test on HOP-62 NSCLC, > 100 µM; with HOP-92 NSCLC, > 57.9 µM; in the test on HT29 colon it was 0.0794 µM. Further, the TGI with MDA-MB-231 breast was > 100 µM; with MDA-MB-435, 0.0373 µM; with OVCAR-5 ovarian, > 100 µM; in the test on UO-31 renal, > 100 µM.
Regarding `CCN1C(=O)N(CC)C2C1NN=c1s/c(=C3\C(=O)N(CCc4ccccc4)c4ccccc43)c(=O)n12` (configuration not stated), the GI50 in the test on 786-0 renal is 1.04 µM; in the test on BT-549 breast it was 1.49 µM; in the test on DU-145 prostate, 0.558 µM; with HOP-62 NSCLC, 0.697 µM; in the test on HOP-92 NSCLC it was 2.55 µM; in the test on HT29 colon, 0.351 µM. For the same compound, the GI50 in the test with MDA-MB-231 breast is 0.844 µM; with MDA-MB-435, 0.245 µM; in the test with OVCAR-5 ovarian, 0.927 µM; in the test on UO-31 renal it was 1.03 µM. Also, the TGI came out at 13.5 µM with 786-0 renal; 4.97 µM in the test on BT-549 breast; 6.95 µM in the test with DU-145 prostate; 9.97 µM in the test on HOP-62 NSCLC; 15.6 µM in the test with HOP-92 NSCLC; 1.58 µM in the test with HT29 colon. Moreover, the TGI in the test with MDA-MB-231 breast is 7.51 µM; in the test with MDA-MB-435, 0.684 µM; in the test on UO-31 renal, > 35.2 µM.
For the compound `Nc1ccc(-c2nc3ccccc3[nH]2)c2ccccc12`, the GI50 is 4.02 µM in the test on 786-0 renal; 2.39 µM with BT-549 breast; 2.81 µM in the test with DU-145 prostate; 6.16 µM with HOP-62 NSCLC; 1.57 µM in the test on HOP-92 NSCLC; 1.49 µM with HT29 colon. The GI50 is 8.16 µM in the test with MDA-MB-231 breast, 0.198 µM in the test on MDA-MB-435, 6.08 µM in the test on OVCAR-5 ovarian and 5.32 µM in the test with UO-31 renal. For the same compound, the TGI was > 41.4 µM with 786-0 renal; 22.5 µM in the test on BT-549 breast; > 22.3 µM with DU-145 prostate; > 100 µM with HOP-62 NSCLC; 9.61 µM with HOP-92 NSCLC; 14.6 µM in the test with HT29 colon. In addition, the TGI with MDA-MB-231 breast is > 41.7 µM; in the test with MDA-MB-435 it was 0.812 µM; in the test on OVCAR-5 ovarian it was > 53.5 µM; in the test with UO-31 renal, > 82.8 µM.
Take `N#Cc1c(N)[nH]c2ccc(Sc3ccccc3)cc12`: the TGI in the test on 786-0 renal was 8.1 µM; with BT-549 breast, 19.5 µM; in the test on DU-145 prostate, 15.5 µM; with HOP-62 NSCLC, 20.5 µM; with HOP-92 NSCLC, 19.8 µM; in the test on HT29 colon it was 9.01 µM. The TGI with MDA-MB-231 breast is 15.4 µM; in the test on MDA-MB-435 it was 0.146 µM; in the test with OVCAR-5 ovarian it was 18 µM; with UO-31 renal, 13.9 µM.
Regarding `O=C(Oc1cccnc1)c1ccsc1Nc1ccnc(C(F)(F)F)c1`, the GI50 with 786-0 renal was 53 µM; in the test on BT-549 breast, 5.36 µM; in the test on DU-145 prostate, 24.6 µM; in the test with HOP-62 NSCLC it was 25 µM; in the test on HOP-92 NSCLC, 3.14 µM; in the test on HT29 colon it was 2.39 µM. For the same compound, the GI50 is 6.03 µM in the test on MDA-MB-231 breast, 2.88 µM in the test with MDA-MB-435, 4.67 µM in the test with OVCAR-5 ovarian and 20.8 µM in the test on UO-31 renal. Also, the TGI is > 100 µM in the test with 786-0 renal; > 100 µM in the test with BT-549 breast; > 100 µM in the test with DU-145 prostate; > 100 µM with HOP-62 NSCLC; 46.5 µM with HOP-92 NSCLC; 6.34 µM with HT29 colon. Besides, the TGI with MDA-MB-231 breast was > 100 µM; in the test on MDA-MB-435, 11.8 µM; in the test with OVCAR-5 ovarian, > 100 µM; in the test with UO-31 renal, > 100 µM.
Consider `N#CN1CC[C@H](C(=O)Nc2ncc(-c3ccncc3)s2)C1`, for which the GI50 with 786-0 renal is 0.0415 µM; with BT-549 breast, < 0.0116 µM; in the test with DU-145 prostate, < 0.0238 µM; in the test on HOP-62 NSCLC, 0.0689 µM; in the test on HOP-92 NSCLC it was 0.0802 µM; in the test on HT29 colon, < 0.0197 µM. The GI50 with MDA-MB-231 breast is < 0.0266 µM; in the test with MDA-MB-435 it was < 0.0148 µM; in the test on OVCAR-5 ovarian, 0.0576 µM; with UO-31 renal it was < 0.0188 µM. The TGI in the test on 786-0 renal worked out at 2.33 µM; with BT-549 breast, 0.188 µM; in the test with DU-145 prostate, 39.7 µM; in the test on HOP-62 NSCLC, 3.92 µM; in the test on HOP-92 NSCLC, 0.761 µM; with HT29 colon it was 1.96 µM. Also, the TGI in the test on MDA-MB-231 breast is > 50.2 µM; in the test with MDA-MB-435 it was 5.52 µM; with OVCAR-5 ovarian, > 77.3 µM; with UO-31 renal, 0.758 µM.
Consider `CN(CC(N)=O)C(=O)N(CCCl)N=O`, for which the TGI with 786-0 renal, in the test on BT-549 breast, in the test on DU-145 prostate, with HOP-62 NSCLC, in the test on HOP-92 NSCLC and in the test with HT29 colon was > 100 µM each time. Besides, the TGI with MDA-MB-231 breast, in the test with MDA-MB-435, in the test on OVCAR-5 ovarian and in the test on UO-31 renal was > 100 µM throughout.
Consider `Cc1cccc(NC(=O)c2sc3nc4c(cc3c2N)CN(Cc2ccccc2)CC4)c1C`, for which the GI50 was 0.197 µM with 786-0 renal; 0.304 µM in the test on BT-549 breast; 0.201 µM in the test with DU-145 prostate; 0.261 µM in the test on HOP-62 NSCLC; 0.736 µM in the test with HOP-92 NSCLC; 0.147 µM in the test on HT29 colon. Moreover, the GI50 in the test with MDA-MB-231 breast is 0.432 µM; with MDA-MB-435, 0.065 µM; with OVCAR-5 ovarian it was 0.484 µM; with UO-31 renal, 0.917 µM. Also, the TGI is 28.5 µM in the test with 786-0 renal; > 50 µM in the test on BT-549 breast; > 50 µM in the test with DU-145 prostate; > 50 µM with HOP-62 NSCLC; 47.3 µM with HOP-92 NSCLC; 1.6 µM in the test with HT29 colon. Moreover, the TGI in the test on MDA-MB-231 breast is > 50 µM; with MDA-MB-435, 0.181 µM; in the test with OVCAR-5 ovarian it was > 50 µM; in the test with UO-31 renal, > 50 µM.
